Measured values published in patent publication US20100087499A1, “PHARMACEUTICAL COMPOSITIONS AND METHODS OF USING TEMOZOLOMIDE AND MULTI-TARGETED KINASE INHIBITORS” (SCHERING CORPORATION, priority 2007, published 2010).

System: U87MG glioblastoma xenograft
Assay: U87MG glioblastoma xenograft tumor growth in nude mice
Assay type: in vivo
Procedure: The following human glioblastoma xenograft model may be employed to ascertain the efficacy of the formulations and methods described herein. Human glioblastoma cell U87MG are inoculated subcutaneously into female nude mice (age 4-6 wks). Xenograft tumor growth is followed by measuring the tumor size using a caliper. Once tumor size reaches about 100 mm^3 (average), mice carrying the xenograft tumors are grouped and treated with different doses of the combination of TMZ and a multi-targeted kinase inhibitor. Likewise, human glioblastoma cell U373 may be used to establish a xenograft model.
The combination of TMZ and a multi-targeted kinase inhibitor (e.g., sunitinib) for treating a cell proliferative disorder was examined using a human glioblastoma xenograft model. In particular, the glioblastoma model U87MG was used to evaluate the efficacy of multi-targeted kinase inhibitor sunitinib as a single agent compared to TMZ (Temozolomide, Temodar®), a chemotherapeutic drug clinically approved for treating brain tumor, as a single agent. In addition, this study looked at the efficacy of the combination of TMZ with sunitinib in comparison to the efficacy with either agent alone.
In brief, nude mice were inoculated with U87-MG glioblastoma cells and the resultant tumors treated with control, or various concentrations of TMZ, sunitinib, or a combination of both TMZ and sunitinib. More specifically, female nude mice (strain NU/NU), aged 6-8 weeks old were purchased from Charles River Laboratory. Five million glioblastoma U87-MG were mixed 1:1 (volume:volume) with Matrigel (Cat. # 354234, BD Biosciences) on ice and mixtures were inoculated subcutaneously to the flank of each mouse. Dosing was initiated on day 8 after inoculation when the tumor size was approximately 100 mm^3. TMZ was administered qd, ip for five consecutive days. Sunitinib was administered qd, po for 9-12 days consecutive days (until the end of the studies). The dosing volume was approximately 0.1 ml. Tumor size and body weight was measured two to three times per week.
There were 10 nude mice per dosing regimen.

Row | Structure (SMILES) | inhibition of tumor growth (Day 17 post inoculation, sunitinib alone 40 mpk qd po, Table 1 / FIG. 2) | inhibition of tumor growth (Day 17 post inoculation, sunitinib alone 80 mpk qd po, Table 1 / FIG. 2) | inhibition of tumor growth (Day 20 post inoculation, sunitinib alone 40 mpk qd po, Table 2 / FIG. 4) | inhibition of tumor growth (Day 20 post inoculation, sunitinib alone 80 mpk qd po, Table 2 / FIG. 4) | inhibition of tumor growth (Day 17 post inoculation (day 9 post dosing initiation), TMZ alone 20 mpk qd ip x5 days, Table 1 / FIG. 2) | inhibition of tumor growth (Day 17 post inoculation, TMZ alone 30 mpk (so in the source) qd ip x5 days, Table 1 / FIG. 2) | inhibition of tumor growth (Day 17 post inoculation, TMZ alone 40 mpk (so in the source) qd ip x5 days, Table 1 / FIG. 2) | inhibition of tumor growth (Day 20 post inoculation (day 12 post dosing initiation), TMZ alone 5 mpk qd ip x5 days, Table 2 / FIG. 4) | inhibition of tumor growth (Day 20 post inoculation, TMZ alone 20 mpk qd ip x5 days, Table 2 / FIG. 4)
1 | CCN(CC)CCNC(=O)c1c(C)[nH]c(/C=C2\C(=O)Nc3ccc(F)cc32)c1C [sunitinib] | 56% | 82% | 76% | 83% |  |  |  |  | 
2 | Cn1nnc2c(C(N)=O)ncn2c1=O [TMZ, 3,4-dihydro-3-methyl-4-oxoimidazo[5,1-d]-as-tetazine-8-carboxamide] |  |  |  |  | 96% | 96% | 98% | 95% | 102%
